According to patent US20080221063A1, “Heterocyclic Sulfonamide Derivatives As Inhibitors Of Factor Xa” (ASTRAZENECA AB, priority 2005, published 2008):

Target: T1, human FXa (Homo sapiens, UniProt P00742)
T1 construct: FXa solution (human FXa, Haematologic Technologies Inc., Essec Junction, Vt., USA); purchased Haematologic Technologies Inc
Test: Measurement of Factor Xa Inhibition (chromogenic substrate method)
Type: biochemical
Conditions: chromogenic substrate S-2765, 40 min incubation at 37° C., pH 7.4
Experimental: a) Measurement of Factor Xa Inhibition
The FXa inhibitor potency was measured with a chromogenic substrate method, in a Plato 3300 robotic microplate processor (Rosys AG, CH-8634 Hombrechtikon, Switzerland), using 96-well, half-volume microtiter plates (Costar, Cambridge, Mass., USA; Cat No 3690). Stock solutions of test substance in DMSO (72 μL), 10 mmol/L, alternatively 1 mmol/L were diluted serially 1:3 (24+48 μL) with DMSO to obtain ten different concentrations, which were analyzed as samples in the assay, together with controls and blanks. As control sample melagatran was analysed. The dilutions of each test substance were analyzed consecutively, row-wise on the microtiter plate, with wasp cycles between substances to avoid cross-contamination. […] The final assay concentrations were: test substance 0.0068-133, respectively 0.00068-13.3 μmol/L, S-2765 0.40 mmol/L (KM=0.25 mmol/L) and FXa […]. The linear absorbance increase at 405 n=during 40 min incubation at 37° C. was used for calculation of percent inhibition for the test samples, as compared to references without inhibitor and/or enzyme. […]

T1 sequence (P00742 235-488 limits assumed): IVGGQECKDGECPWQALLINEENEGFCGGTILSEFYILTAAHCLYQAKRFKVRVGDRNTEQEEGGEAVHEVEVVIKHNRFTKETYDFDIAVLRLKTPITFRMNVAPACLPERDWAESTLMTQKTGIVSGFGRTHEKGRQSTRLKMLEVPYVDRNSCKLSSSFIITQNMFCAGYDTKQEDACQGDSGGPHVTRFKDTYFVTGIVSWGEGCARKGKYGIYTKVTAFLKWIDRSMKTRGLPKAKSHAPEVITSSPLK
T1 sequence (P00742 41-179 partner limits assumed): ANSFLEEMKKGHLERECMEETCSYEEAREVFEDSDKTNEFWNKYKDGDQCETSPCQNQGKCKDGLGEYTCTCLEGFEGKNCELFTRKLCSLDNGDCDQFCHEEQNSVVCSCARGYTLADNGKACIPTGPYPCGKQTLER

Row | SMILES | IC50 [nM]
1 | CCNC(=O)C1CN(S(=O)(=O)c2ccc3c(Cl)c[nH]c3c2)CC(=O)N1CC1CCN(c2ccc(=O)n(C)n2)CC1 (centres unmarked) [Example 4, 4-(3-Chloro-1H-indole-6-sulfonyl)-1-[1-(1-methyl-6-oxo-1,6-dihydro-pyridazin-3-yl)-piperidin-4-ylmethyl]-6-oxo-piperazine-2-carboxylic acid ethylamide] | 5
2 | CC(C)OC(=O)C1CN(S(=O)(=O)c2ccc3c(Cl)c[nH]c3c2)CC(=O)N1CC1CCN(c2ccc(=O)n(C)n2)CC1 (centres unmarked) [Example 13, 4-(3-Chloro-1H-indole-6-sulfonyl)-1-[1-(1-methyl-6-oxo-1,6-dihydro-pyridazin-3-yl)-piperidin-4-ylmethyl]-6-oxo-piperazine-2-carboxylic acid isopropyl ester] | 2.3
